Data as given in patent US20240000738A1, “HYDROXYSTEARIC ACID FOR INDUCING GENERATION OF ANTIMICROBIAL PEPTIDES” (Conopco, Inc., d/b/a UNILEVER, priority 2020, published 2024).

Columns and labels:
Format in all cases: cell-based, Human
S100A7 = assay: AMP gene expression in keratinocytes (real time qPCR), S100A7; settings: NHEK cells, 12HSA at 1 μM (=0.00003 wt %), 24 h
Excerpt: (§1) The following protocol was used for evaluating actives (12-HSA) on keratinocytes for AMP gene expression Normal Human Epidermal Keratinocyte cells (NHEK), EpiLife Keratinocyte Growth Medium (KGM) (with antibiotics Pen-Strep), Dulbecco's Phosphate Buffered Salone (DPBS), Trypsin-EDTA, Trypsin Neutralizer Solution, Ethanol, RNA extraction kit (RNeasy kit), RLT buffer, RT-PCR kit. • 1. Thaw the NHEK cells and expand them in KGM in 2-25 cc and then 75 cc flasks to 80% confluency, changing media every alternate day and incubating at 37° C. in a 5% CO2 incubator. • 2. Discard spent media and rinse the adhered cells in the flask with DPBS. Add Trypsin-EDTA and tap to dislodge the adhered cells. Add Trypsin Neutralizer and gently mix it. • 3. Transfer the contents to a 15-ml tube and spin down the cells. Discard supernatant and resuspend cells in KGM. Count and seed 30,000-50,000 cells per well in 24 well TC plates, incubate to 80-85% confluence (˜2-3 days). Change media every alternate day. Add differentiation media (KGM with 2 mM CaCl2) and incubate for 2-3 days. • 4. Prepare actives in KGM at the required concentration (final concentration of ethanol solvent, if used, should be less than 0.1%). • 5. […] Perform RNA extraction as per the kit, quantify the RNA, do cDNA synthesis and do real time qPCR for cDNA samples. […]

RNase7 = assay: AMP gene expression in keratinocytes (real time qPCR), RNase7; settings: NHEK cells, 12HSA at 1 μM (=0.00003 wt %), 24 h
Excerpt: as §1

LL-37 = assay: AMP gene expression in keratinocytes (real time qPCR), LL-37; settings: NHEK cells, 12HSA at 1 μM (=0.00003 wt %), 24 h
Excerpt: as §1

HBD-3 = assay: AMP gene expression in keratinocytes (real time qPCR), HBD-3; settings: NHEK cells, 12HSA at 1 μM (=0.00003 wt %), 24 h
Excerpt: as §1

Psoriasin (S100A7) = assay: AMP secretion from keratinocytes (Psoriasin ELISA); settings: NHEK cells, 72 h, ELISA of supernatant
Excerpt: Psoriasin (S100A7) AMP from the above list was chosen to study the effect of concentration of 12-HSA on the secretion of the AMP. The procedure used was as follows: Normal Human Epidermal Keratinocyte cells (NHEK), EpiLife Keratinocyte Growth Medium (KGM) (with antibiotics Pen-Strep), Dulbecco's Phosphate Buffered Salone (DPBS), Trypsin-EDTA, Trypsin Neutralizer Solution, Ethanol, Psoriasin ELISA Kit. • 1. Thaw the NHEK cells and expand them in KGM in 2 -25 cc and then 75 cc flasks to 80% confluency, changing media every alternate day and incubating at 37° C. in a 5% CO2 incubator. • 2. Discard spent media and rinse the adhered cells in the flask with DPBS. Add Trypsin-EDTA and tap to dislodge the adhered cells. Add Trypsin Neutralizer and gently mix it. • 3. Transfer the contents to a 15-ml tube and spin down the cells. Discard supernatant and resuspend cells in KGM. Count and seed 30,000-50,000 cells per well in 24 well TC plates, incubate to 80-85% confluence (˜2-3 days). Change media every alternate day. Add differentiation media (KGM with 2 mM CaCl2) and incubate for 2-3 days. • 4. Prepare actives in KGM at the required concentration (final concentration of ethanol solvent, if used, should be less than 0.1%). • 5. Replace the differentiation media with the actives containing media and incubate for 72 h • 6. Collect supernatant and store at −80° C. Thaw them completely before performing ELISA to measure AMP (Psoriasin). • 7. For ELISA, run the required standards and samples (undiluted and diluted) and using standard plot, the amount of AMP in samples calculated.

CCCCCCC(O)CCCCCCCCCCC(=O)O (centres unmarked) [12-HSA, 12-hydroxystearic acid]
Fold change with respect to control, AMP gene S100A7 (S100A7): 1.66 fold | Fold change with respect to control, AMP gene RNase7 (RNase7): 2.56 fold | Fold change with respect to control, AMP gene LL-37 (LL-37): 2.09 fold | Fold change with respect to control, AMP gene HBD-3 (HBD-3): 2.16 fold | Fold change with respect to control (Psoriasin increase) (Psoriasin (S100A7); 0.25 μM 12-HSA): 8.12 fold | Fold change with respect to control (Psoriasin increase) (Psoriasin (S100A7); 0.50 μM 12-HSA): 15.07 fold | Fold change with respect to control (Psoriasin increase) (Psoriasin (S100A7); 1.0 μM 12-HSA): 9.79 fold | Fold change with respect to control (Psoriasin increase) (Psoriasin (S100A7); 2.0 μM 12-HSA): 15.70 fold
